From ChEMBL document CHEMBL1139781, “Pyrazolo[3,4-d]pyrimidines as potent inhibitors of the insulin-like growth factor receptor (IGF-IR)” (Bioorg Med Chem Lett, 2007)

Experiments:
[1] = biological target: T1, Insulin-like growth factor 1 receptor (Homo sapiens, UniProt P08069); assay: Inhibition of human IGF1R expressed in Sf21 cells by time-resolved fluorescence assay
[2] = biological target: T1, Insulin-like growth factor 1 receptor; assay: Inhibition IGF1R phosphorylation in human MiaPaCa2 cells; type: cell-based
[3] = Half life in mouse; type: ADME, organism-based; conditions: in vivo
Mus musculus [4] = assay: Dose normalized AUC in iv dosed mouse; type: ADME, organism-based; conditions: in vivo
Mus musculus [5] = assay: Dose normalized AUC in po dosed mouse; type: ADME, organism-based; conditions: in vivo
[6] = Plasma clearance in mouse; type: ADME, organism-based
[7] = Bioavailability in mouse; type: ADME, organism-based; conditions: in vivo
Mus musculus [8] = assay: In vivo inhibition of IFG1R autophosphorylation in C57BL/6 mouse lung at 12.5 mg/kg, po after 4 hrs; type: organism-based; set-up: dose 12.5 mg/kg, route oral; conditions: C57BL6, po
[9] = Drug concentration in C57BL/6 mouse plasma at 12.5 mg/kg, po after 4 hrs; type: ADME, organism-based, C57BL6; set-up: dose 12.5 mg/kg, route oral

T1 sequence (P08069 31-736 limits assumed): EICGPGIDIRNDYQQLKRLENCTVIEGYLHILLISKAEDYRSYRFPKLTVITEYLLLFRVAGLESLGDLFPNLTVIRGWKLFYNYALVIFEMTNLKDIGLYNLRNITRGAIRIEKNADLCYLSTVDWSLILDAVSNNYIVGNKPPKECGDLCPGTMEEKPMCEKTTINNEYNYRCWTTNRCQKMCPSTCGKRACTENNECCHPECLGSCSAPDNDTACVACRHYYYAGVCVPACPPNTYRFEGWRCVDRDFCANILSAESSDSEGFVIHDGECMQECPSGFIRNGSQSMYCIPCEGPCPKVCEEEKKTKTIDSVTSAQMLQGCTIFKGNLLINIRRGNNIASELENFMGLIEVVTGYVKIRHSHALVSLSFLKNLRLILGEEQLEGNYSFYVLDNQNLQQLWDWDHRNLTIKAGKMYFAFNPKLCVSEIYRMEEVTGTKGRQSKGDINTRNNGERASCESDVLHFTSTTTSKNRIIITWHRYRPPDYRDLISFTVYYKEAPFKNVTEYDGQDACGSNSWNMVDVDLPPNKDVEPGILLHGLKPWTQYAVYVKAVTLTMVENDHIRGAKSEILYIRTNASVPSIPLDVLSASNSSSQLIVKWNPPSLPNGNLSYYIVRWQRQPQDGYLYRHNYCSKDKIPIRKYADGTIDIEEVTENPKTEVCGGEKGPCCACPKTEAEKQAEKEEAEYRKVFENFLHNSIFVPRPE
T1 sequence (P08069 741-1367 limits assumed): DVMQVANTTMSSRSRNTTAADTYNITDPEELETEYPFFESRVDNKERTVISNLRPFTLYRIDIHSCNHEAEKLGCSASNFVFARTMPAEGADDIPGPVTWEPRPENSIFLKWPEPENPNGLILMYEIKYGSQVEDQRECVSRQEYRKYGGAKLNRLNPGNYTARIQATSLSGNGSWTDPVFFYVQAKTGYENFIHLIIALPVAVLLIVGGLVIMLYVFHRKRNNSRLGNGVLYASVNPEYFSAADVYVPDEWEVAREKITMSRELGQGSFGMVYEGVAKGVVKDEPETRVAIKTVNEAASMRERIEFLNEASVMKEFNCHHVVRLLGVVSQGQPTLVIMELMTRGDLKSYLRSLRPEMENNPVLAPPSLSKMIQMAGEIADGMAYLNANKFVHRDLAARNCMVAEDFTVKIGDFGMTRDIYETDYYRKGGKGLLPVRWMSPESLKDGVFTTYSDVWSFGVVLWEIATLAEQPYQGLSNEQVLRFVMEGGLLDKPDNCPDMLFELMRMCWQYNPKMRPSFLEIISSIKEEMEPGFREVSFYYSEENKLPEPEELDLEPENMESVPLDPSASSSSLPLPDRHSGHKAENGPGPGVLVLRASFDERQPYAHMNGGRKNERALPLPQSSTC

Compound | IC50 [1] [nM] | IC50 [2] [nM] | further results
Nc1ncnc2c1c(-c1ccc3[nH]c(Cc4c(Cl)cccc4Cl)nc3c1)nn2[C@H]1CC[C@H](N2CCOCC2)CC1 | 125 | 252 | 
Nc1ncnc2c1c(-c1ccc3[nH]c(-c4ccccc4)nc3c1)nn2[C@H]1CC[C@H](N2CCOCC2)CC1 | 176 | 787 | 
Nc1ncnc2c1c(-c1ccc3[nH]c(Cc4cccc(Cl)c4Cl)nc3c1)nn2[C@H]1CC[C@H](N2CCOCC2)CC1 | 2320 |  | 
Nc1ncnc2c1c(-c1ccc3[nH]c(Cc4c(F)cccc4Cl)nc3c1)nn2[C@H]1CC[C@H](N2CCOCC2)CC1 | 90 | 113 | 
Cn1c(Cc2ccccc2)nc2cc(-c3nn([C@H]4CC[C@H](N5CCOCC5)CC4)c4ncnc(N)c34)ccc21 | 35 | 132 | 
CN1CCN([C@H]2C[C@@H](c3nc(-c4ccc5ccc(-c6ccccc6)nc5c4)c4c(N)nccn43)C2)CC1 | 37 | 58 | 
Cc1ccccc1Cc1nc2ccc(-c3nn([C@H]4CC[C@H](N5CCOCC5)CC4)c4ncnc(N)c34)cc2[nH]1 | 38 | 117 | 
Cc1cccc(Cc2nc3ccc(-c4nn([C@H]5CC[C@H](N6CCOCC6)CC5)c5ncnc(N)c45)cc3[nH]2)c1 | 186 | 267 | 
Nc1ncnc2c1c(-c1ccc3nc(Cc4ccccc4)[nH]c3c1)nn2[C@H]1CC[C@H](N2CCOCC2)CC1 | 64 | 94 | half-life [3]: 1 h; AUC (Mus musculus [4]): 1.1 µmol·h/L/mg/kg; AUC (Mus musculus [5]): 0.16 µmol·h/L/mg/kg; clearance [6]: 38.3 mL/min/kg; bioavailability [7]: 15%
Nc1ncnc2c1c(-c1ccc3nc(Cc4cc(F)cc(F)c4)[nH]c3c1)nn2[C@H]1CC[C@H](N2CCOCC2)CC1 | 152 | 183 | 
Cc1cc(-c2nn([C@H]3CC[C@H](N4CCOCC4)CC3)c3ncnc(N)c23)cc2[nH]c(Cc3ccccc3)nc12 | 4330 | 2790 | 
Nc1ncnc2c1c(-c1ccc3nc(Cc4cccc(Cl)c4)[nH]c3c1)nn2[C@H]1CC[C@H](N2CCOCC2)CC1 | 123 | 372 | 
Nc1ncnc2c1c(-c1ccc3nc(Cc4cccc(F)c4)[nH]c3c1)nn2[C@H]1CC[C@H](N2CCOCC2)CC1 | 58 | 140 | 
Cc1ccc(Cc2nc3ccc(-c4nn([C@H]5CC[C@H](N6CCOCC6)CC5)c5ncnc(N)c45)cc3[nH]2)cc1 | 70 | 257 | 
Nc1ncnc2c1c(-c1ccc3nc(Cc4cccc(F)c4F)[nH]c3c1)nn2[C@H]1CC[C@H](N2CCOCC2)CC1 | 173 | 197 | 
Nc1ncnc2c1c(-c1ccc3nc(Cc4ccc(Cl)c(Cl)c4)[nH]c3c1)nn2[C@H]1CC[C@H](N2CCOCC2)CC1 | 488 | 429 | 
Nc1ncnc2c1c(-c1ccc3nc(Cc4ccc5ccccc5c4)[nH]c3c1)nn2[C@H]1CC[C@H](N2CCOCC2)CC1 | 1310 | 2340 | 
Nc1ncnc2c1c(-c1ccc3nc(Cc4cccs4)[nH]c3c1)nn2[C@H]1CC[C@H](N2CCOCC2)CC1 | 23 | 56 | half-life [3]: 0.6 h; AUC (Mus musculus [4]): 0.42 µmol·h/L/mg/kg; AUC (Mus musculus [5]): 0.039 µmol·h/L/mg/kg; clearance [6]: 76.7 mL/min/kg; bioavailability [7]: 9%
Nc1ncnc2c1c(-c1ccc3nc(Cc4ccc(F)cc4)[nH]c3c1)nn2[C@H]1CC[C@H](N2CCOCC2)CC1 | 924 | 1250 | 
Nc1ncnc2c1c(-c1ccc3nc(Cc4ccccc4Cl)[nH]c3c1)nn2[C@H]1CC[C@H](N2CCOCC2)CC1 | 37 | 90 | half-life [3]: 1.2 h; AUC (Mus musculus [4]): 1.5 µmol·h/L/mg/kg; AUC (Mus musculus [5]): 0.43 µmol·h/L/mg/kg; inhibition at 12.5 mg/kg (Mus musculus [8]): 92%; concentration at 4 h [9]: 2400 nM; clearance [6]: 20 mL/min/kg; bioavailability [7]: 28%
Nc1ncnc2c1c(-c1ccc3nc(Cc4ccsc4)[nH]c3c1)nn2[C@H]1CC[C@H](N2CCOCC2)CC1 | 32 | 84 | 
Nc1ncnc2c1c(-c1ccc3nc(Cc4ccc(Cl)cc4)[nH]c3c1)nn2[C@H]1CC[C@H](N2CCOCC2)CC1 | 642 | 637 | 
Cc1nc(Cc2nc3ccc(-c4nn([C@H]5CC[C@H](N6CCOCC6)CC5)c5ncnc(N)c45)cc3[nH]2)cs1 | 3310 | 1540 | 
Nc1ncnc2c1c(-c1ccc3[nH]c(Cc4ccccc4Br)nc3c1)nn2[C@H]1CC[C@H](N2CCOCC2)CC1 | 71 | 65 | 
Nc1ncnc2c1c(-c1ccc3nc(Cc4ccc(F)c(F)c4)[nH]c3c1)nn2[C@H]1CC[C@H](N2CCOCC2)CC1 | 674 | 819 | 
Nc1ncnc2c1c(-c1ccc3nc(Cc4c(F)cccc4F)[nH]c3c1)nn2[C@H]1CC[C@H](N2CCOCC2)CC1 | 79 | 104 | 
COc1ccccc1Cc1nc2ccc(-c3nn([C@H]4CC[C@H](N5CCOCC5)CC4)c4ncnc(N)c34)cc2[nH]1 | 81 | 142 | 
Nc1ncnc2c1c(-c1ccc3nc(Cc4ccccc4F)[nH]c3c1)nn2[C@H]1CC[C@H](N2CCOCC2)CC1 | 51 | 168 | 
Nc1ncnc2c1c(-c1ccc3nc(Cc4ccccn4)[nH]c3c1)nn2[C@H]1CC[C@H](N2CCOCC2)CC1 | 2340 | 2650 | 
